Our source for the logP and IC50 values is ChEMBL document CHEMBL4130367, “Click chemistry-based synthesis and anticancer activity evaluation of novel C-14 1,2,3-triazole dehydroabietic acid hybrids” (Eur J Med Chem, 2017).

Each structure is given as a SMILES string. Bounds are passed on as bounds.

System in the first data set: not listed separately
Briefly: Octanol-water partition coefficient, log P of the compound. Format: physicochemical.
Details: not given
`COC(=O)[C@]1(C)CCC[C@]2(C)c3ccc(C(C)C)c(NC(=O)Cn4cc(CBr)nn4)c3CC[C@@H]12`: the log partition coefficient (logP) – broadly, the decadic logarithm of the partition coefficient of the neutral form, usually between octanol and water – was found to be 4.47.

In the case of `COC(=O)[C@]1(C)CCC[C@]2(C)c3ccc(C(C)C)c(NC(=O)Cn4cc(-c5cccc(F)c5)nn4)c3CC[C@@H]12`, the lipophilicity (logP) turned out to be 5.34.

`COC(=O)[C@]1(C)CCC[C@]2(C)c3ccc(C(C)C)c(NC(=O)Cn4cc(-c5ccccc5)nn4)c3CC[C@@H]12` registered a lipophilicity (logP) of 5.2.

Molecule `COC(=O)[C@]1(C)CCC[C@]2(C)c3ccc(C(C)C)c(NC(=O)Cn4cc(-c5cccc([N+](=O)[O-])c5)nn4)c3CC[C@@H]12` had a log partition coefficient (logP) of 5.13.

`COC(=O)[C@]1(C)CCC[C@]2(C)c3ccc(C(C)C)c(NC(=O)Cn4cc(-c5ccc(F)cc5)nn4)c3CC[C@@H]12` showed a logP of 5.31.

With `COC(=O)[C@]1(C)CCC[C@]2(C)c3ccc(C(C)C)c(NC(=O)Cn4cc([Si](C)(C)C)nn4)c3CC[C@@H]12`, the logP was determined as 6.04.

In the case of `COC(=O)[C@]1(C)CCC[C@]2(C)c3ccc(C(C)C)c(NC(=O)Cn4cc(Cc5ccccc5)nn4)c3CC[C@@H]12`, the logP came out at 5.72.

The test system of another data set is MDA-MB-231. Description: Cytotoxicity against human MDA-MB-231 cells assessed as reduction in cell viability after 72 hrs by MTT assay. The conditions noted are these: MDA-MB-231, 72 h. It counts as functional, cell-based. A general note: Tetrazolium dyes change colour on reduction, which living cells bring about.
Turning to `COC(=O)[C@]1(C)CCC[C@]2(C)c3ccc(C(C)C)c(NC(=O)Cn4cc(CBr)nn4)c3CC[C@@H]12`, the 50% inhibitory concentration (IC50) (as a rule, the concentration needed to halve the response being measured) is 60 µM.

For `COC(=O)[C@]1(C)CCC[C@]2(C)c3ccc(C(C)C)c(NC(=O)Cn4cc(-c5cccc(F)c5)nn4)c3CC[C@@H]12`, the IC50 was more than 100 µM.

As to `COC(=O)[C@]1(C)CCC[C@]2(C)c3ccc(C(C)C)c(NC(=O)Cn4cc(-c5ccccc5)nn4)c3CC[C@@H]12`, the half-maximal inhibitory concentration (IC50) amounted to 3 µM.

For the molecule `COC(=O)[C@]1(C)CCC[C@]2(C)c3ccc(C(C)C)c(NC(=O)Cn4cc(-c5cccc([N+](=O)[O-])c5)nn4)c3CC[C@@H]12`, the IC50 is 87.5 µM.

Regarding `COC(=O)[C@]1(C)CCC[C@]2(C)c3ccc(C(C)C)c(NC(=O)Cn4cc(-c5ccc(F)cc5)nn4)c3CC[C@@H]12`, the IC50 was determined as 1 µM.

With `COC(=O)[C@]1(C)CCC[C@]2(C)c3ccc(C(C)C)c(NC(=O)Cn4cc([Si](C)(C)C)nn4)c3CC[C@@H]12`, the 50% inhibitory concentration (IC50) is more than 100 µM.

As to `COC(=O)[C@]1(C)CCC[C@]2(C)c3ccc(C(C)C)c(NC(=O)Cn4cc(Cc5ccccc5)nn4)c3CC[C@@H]12`, the IC50 worked out at 31.9 µM.

The next data set has as its system SK-OV-3. Description: Cytotoxicity against human SKOV3 cells assessed as reduction in cell viability after 72 hrs by MTT assay. It counts as functional, cell-based. The following applies: SK-OV-3, 72 h.
As to `COC(=O)[C@]1(C)CCC[C@]2(C)c3ccc(C(C)C)c(NC(=O)Cn4cc(CBr)nn4)c3CC[C@@H]12`, the concentration for half-maximal inhibition (IC50) was more than 100 µM.

Consider `COC(=O)[C@]1(C)CCC[C@]2(C)c3ccc(C(C)C)c(NC(=O)Cn4cc(-c5cccc(F)c5)nn4)c3CC[C@@H]12`, for which the IC50 came out at 91.2 µM.

Consider `COC(=O)[C@]1(C)CCC[C@]2(C)c3ccc(C(C)C)c(NC(=O)Cn4cc(-c5ccccc5)nn4)c3CC[C@@H]12`, for which the IC50 is 4.8 µM.

As to `COC(=O)[C@]1(C)CCC[C@]2(C)c3ccc(C(C)C)c(NC(=O)Cn4cc(-c5cccc([N+](=O)[O-])c5)nn4)c3CC[C@@H]12`, the 50% inhibitory concentration (IC50) is more than 100 µM.

Regarding `COC(=O)[C@]1(C)CCC[C@]2(C)c3ccc(C(C)C)c(NC(=O)Cn4cc(-c5ccc(F)cc5)nn4)c3CC[C@@H]12`, the IC50 was found to be 1.8 µM.

Turning to `COC(=O)[C@]1(C)CCC[C@]2(C)c3ccc(C(C)C)c(NC(=O)Cn4cc([Si](C)(C)C)nn4)c3CC[C@@H]12`, the IC50 is 65.2 µM.

On to `COC(=O)[C@]1(C)CCC[C@]2(C)c3ccc(C(C)C)c(NC(=O)Cn4cc(Cc5ccccc5)nn4)c3CC[C@@H]12`, for which the IC50 stood at 59.4 µM.

The test system of the next data set is MCF7. Briefly: cells. The following applies: Homo sapiens, MCF7, 72 h.
Description: Cytotoxicity against human MCF7 cells assessed as reduction in cell viability after 72 hrs by MTT assay
In the case of `COC(=O)[C@]1(C)CCC[C@]2(C)c3ccc(C(C)C)c(NC(=O)Cn4cc(CBr)nn4)c3CC[C@@H]12`, the IC50 was more than 100 µM.

Consider `COC(=O)[C@]1(C)CCC[C@]2(C)c3ccc(C(C)C)c(NC(=O)Cn4cc(-c5cccc(F)c5)nn4)c3CC[C@@H]12`, for which the IC50 turned out to be 68.8 µM.

`COC(=O)[C@]1(C)CCC[C@]2(C)c3ccc(C(C)C)c(NC(=O)Cn4cc(-c5ccccc5)nn4)c3CC[C@@H]12` had a 50% inhibitory concentration (IC50) of 3.7 µM.

Turning to `COC(=O)[C@]1(C)CCC[C@]2(C)c3ccc(C(C)C)c(NC(=O)Cn4cc(-c5cccc([N+](=O)[O-])c5)nn4)c3CC[C@@H]12`, the IC50 turned out to be 91.1 µM.

Consider `COC(=O)[C@]1(C)CCC[C@]2(C)c3ccc(C(C)C)c(NC(=O)Cn4cc(-c5ccc(F)cc5)nn4)c3CC[C@@H]12`, for which the IC50 turned out to be 1.9 µM.

Consider `COC(=O)[C@]1(C)CCC[C@]2(C)c3ccc(C(C)C)c(NC(=O)Cn4cc([Si](C)(C)C)nn4)c3CC[C@@H]12`, for which the IC50 is more than 100 µM.

`COC(=O)[C@]1(C)CCC[C@]2(C)c3ccc(C(C)C)c(NC(=O)Cn4cc(Cc5ccccc5)nn4)c3CC[C@@H]12` showed an IC50 of more than 100 µM.

In a further data set the test system is PC-3. Description: Cytotoxicity against human PC3 cells assessed as reduction in cell viability after 72 hrs by MTT assay. It counts as functional, cell-based. The conditions noted are these: PC-3, 72 h.
`COC(=O)[C@]1(C)CCC[C@]2(C)c3ccc(C(C)C)c(NC(=O)Cn4cc(CBr)nn4)c3CC[C@@H]12`: the IC50 is more than 100 µM.

Turning to `COC(=O)[C@]1(C)CCC[C@]2(C)c3ccc(C(C)C)c(NC(=O)Cn4cc(-c5cccc(F)c5)nn4)c3CC[C@@H]12`, the concentration for half-maximal inhibition (IC50) was more than 100 µM.

Take `COC(=O)[C@]1(C)CCC[C@]2(C)c3ccc(C(C)C)c(NC(=O)Cn4cc(-c5ccccc5)nn4)c3CC[C@@H]12`: the half-inhibitory concentration (IC50) came to 3.4 µM.

As to `COC(=O)[C@]1(C)CCC[C@]2(C)c3ccc(C(C)C)c(NC(=O)Cn4cc(-c5cccc([N+](=O)[O-])c5)nn4)c3CC[C@@H]12`, the 50% inhibitory concentration (IC50) is more than 100 µM.

Take `COC(=O)[C@]1(C)CCC[C@]2(C)c3ccc(C(C)C)c(NC(=O)Cn4cc(-c5ccc(F)cc5)nn4)c3CC[C@@H]12`: the IC50 amounted to 2.6 µM.

Take `COC(=O)[C@]1(C)CCC[C@]2(C)c3ccc(C(C)C)c(NC(=O)Cn4cc([Si](C)(C)C)nn4)c3CC[C@@H]12`: the IC50 is 94.3 µM.

In the case of `COC(=O)[C@]1(C)CCC[C@]2(C)c3ccc(C(C)C)c(NC(=O)Cn4cc(Cc5ccccc5)nn4)c3CC[C@@H]12`, the IC50 was more than 100 µM.
